The source of these data is article PMC5299588, “Lumican Peptides: Rational Design Targeting ALK5/TGFBRI” (Scientific Reports, 2017).

As usually defined, the kcat/Km is the turnover number divided by the Michaelis constant. The Kd is a measure of binding affinity in units of concentration. A low value points to higher affinity.

“Also recorded” adds a separate entry of the source. No end group written: not given here.

Series [1] has as its system corneal epithelium. Briefly: In vivo corneal epithelium debridement wound healing in mice, peptide eye drops. More on the design: species or system mouse. The settings on record: for promotion of corneal epithelium wound healing: debridement wound, eye drops 0.3 μM every 15 min for 5 h. The procedure: To confirm peptide action promoting corneal epithelium wound healing in vivo, mice were subjected to a 2 mm with corneal epithelium debridement. The injured corneas were treated with 10 μl eye drops lumican peptides (0.3 μM) every 15 min for 5 h as previously described. Migration distance was measured between the original wound edge and the wound front. In Lumikine (LumC13C-A) treated corneas, the epithelium sheet moved ∼144 μm. […] The average epithelium migration (μm) and standard deviation were calculated from n corneas of each of two separate experiments.
(§1) Use of experimental mice is in compliance to the ARVO statement for the use of animals in vision research and all procedures are approved by IACUC of the University of Cincinnati. Lum^−/− mice in C57BL/6 genetic background aged 7–8 weeks were used in this study. Mice were anesthetized with intraperitoneal injections of a combination of ketamine (10 mg/kg; Henry Shein) and xylazine (1 mg/kg; Henry Shein) prior to the surgery, and a drop of proparacaine hydrochloride 0.5% (Alcon) was applied to the cornea to deliver local anesthesia before injury. Briefly, a 2 mm diameter trephine was used to demarcate the central epithelial region of the eye and the epithelium within the demarcated region was mechanically removed using an Algerbrush II (Alger Equipment Co., Inc., Lago Vista, TX) while viewing the cornea under a stereomicroscope (Stemi SC II stereomicroscope with epi-fluorescence attachment, Carl ZEISS). Eight mice per group were treated and the experiments were repeated at least two times. Each mouse was topically treated with one drop peptide solution (10 μl) at concentration of 0.3 μM or 10 μL PBS every 15 min for 5 h after wounding. After 5 h, mice were sacrificed. The eyes were excised and fixed in 4% paraformaldehyde in PB (0.1 M phosphate buffer, pH 7.4. whole mount corneas were stained with phalloidin and DAPI and image with a Zeiss Apo Tome microscope (Observer Z1). The migration of epithelium sheet was determined as previously described. In brief, migrated corneal epithelium was measured on whole mount samples in 5 different locations equally distributed around the entire circumference of the wound. The number of animals in each experimental group is on the bars in the bar chart. The statistical analyses as well as symbols are shown in the graph legend. PBS treated Lum^−/− mice were used as negative controls, in which the epithelium sheet migrated less than 50 μm in 5 h (Supplemental Fig. 2 for representative plots). Four Z-staged images were collected from each corneas, the epithelium migration was determined by the distance of migration of epithelium front to the initial injured line as previously described.

The target in series [2] is T1, ALK5 (Homo sapiens, UniProt P36897).
T1 sequence (P36897 34-503): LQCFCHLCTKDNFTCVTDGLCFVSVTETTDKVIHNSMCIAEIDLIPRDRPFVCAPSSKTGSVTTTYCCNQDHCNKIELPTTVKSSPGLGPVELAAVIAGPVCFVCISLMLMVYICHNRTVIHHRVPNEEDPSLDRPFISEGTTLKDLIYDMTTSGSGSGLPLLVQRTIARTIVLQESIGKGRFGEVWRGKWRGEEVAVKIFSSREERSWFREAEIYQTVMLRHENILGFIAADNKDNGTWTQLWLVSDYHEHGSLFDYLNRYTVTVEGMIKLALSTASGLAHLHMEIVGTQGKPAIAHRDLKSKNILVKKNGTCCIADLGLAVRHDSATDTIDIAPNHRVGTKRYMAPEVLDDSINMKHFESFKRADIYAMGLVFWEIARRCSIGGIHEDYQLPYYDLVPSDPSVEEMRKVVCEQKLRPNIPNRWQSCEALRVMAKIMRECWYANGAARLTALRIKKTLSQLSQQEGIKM
Briefly: kcat/Km of peptides and loss of binding outside EVTLN region. The settings on record: method not described.

The test system of series [3] is corneal epithelium. The series is described as follows: In vivo corneal epithelium debridement wound healing in Lum−/− mice, peptide eye drops. Conditions: drops 0.3 μM every 15 min for 5 h. Details: species or system C57BL/6 genetic background.
Text: Lum null (Lum^−/−) mice were also used to examine the efficacy of LumC peptides in promoting epithelium sheet migration following debridement wound (Supplemental Fig. S2).
as §1

The target of series [4] is T1, ALK5. The settings on record: cited from earlier work. From the text: Proteoglycans (PGs) are complex polymers composed of a core protein to which one or more glycosaminoglycan (GAGs) chains are covalently attached. They play a central role in physiology and disease[1][2][3][4][5][6]: modulating cell metabolism, mediating cell-cell trafficking, providing support for connective tissue and regulating of a wide range of effectors at both systemic and cellular levels. Small leucine rich proteoglycans (SLRPs) are a family of proteoglycans with small core proteins (~40 Kd) that contain hyper variable glycosylation sites with multivalent binding abilities. […] In this present study, we have accessed the binding of rationally designed LumC peptides with a related scoring approach, MM-GBSA, after docking and molecular dynamics simulations. In this method, docking scores are used to define initial binding sites, and more expensive and rigorous methods such as molecular dynamics (MD) simulation and binding free ...

The next series concerns prostate cancer cell. Conditions: cited from earlier work. From the text:
This could be of particular interest in conditions where patients display delayed wound healing, such as diabetes, which culminates in an increased risk of inflammation and scarring. The significance of synthesizing lumican peptides that mediate TGFbRI signaling also goes beyond promoting skin and corneal wound healing.

The nature of series [5]: Mass spectrometry of LumC13 in solution (dimerization). Conditions: peptide in solution. In kind it is physicochemical.
For series [6], the target named is T1, ALK5. Briefly: Binding affinity (Kd) of designed peptide. Conditions: method not described; highest affinity in all designed peptides.

For the substance “IKHLRLDGNRISE [LumC33ΔC20, Lumican peptide …; control peptide]”, the “promotion of corneal epithelium wound healing” value in the series on corneal epithelium [1] was “did not promote epithelium wound healing”. The kcat/Km on ALK5 [2] is under 100 M⁻¹ s⁻¹. Further, the “promotion of epithelium wound healing / migration” value with corneal epithelium [3] is “little effect promoting wound healing”.
With “IKHLRLDGEVTLN [Hybrid 1/3, hybrid peptide …]”, the “promotion of epithelium wound healing / migration” value in the series with corneal epithelium [3] is on record as “little effect promoting wound healing”.
Consider “Lumican: class II SLRP member, one of the major proteoglycans in the corneal stroma”, for which, in the series with ALK5 [4], the “wound healing via C-terminal domain / TGFβRI interaction” value was “promotes wound healing via its C-terminal domain due to its interaction with TGFβRI (ALK5)”. Besides, in the series with prostate cancer cell, the “prostate cancer cell migration” value is on record as “inhibits prostate cancer cell migration”.
For “LPPDMYECLRVAN [LumC18ΔC5, Lumican peptide …]”, the “promotion of epithelium wound healing / migration” value with corneal epithelium [3] is “little effect promoting wound healing”.
Regarding “YECLRVANEVTLN [LumC13, peptide designed from the 13 C-terminal amino acids of lumican, …]”, in the series with corneal epithelium [1], the “promotion of corneal epithelium wound healing” value is “increased ability to promote wound healing”. In addition, the “promotion of epithelial cell migration (words, conclusion)” value in the series with corneal epithelium [1] (in vitro and in vivo wound healing assays) is given as “essential to promote epithelial cell migration to the same extent as lumican”. For the same substance, the “dimerization in solution via disulfide bond formation” value in series [5] was “dimerization of the LumC13 peptides in solution via disulfide bond formation of cysteine residue, which reduces the activity of dimerized LumC13”. Further, the specificity constant (kcat/Km) at ALK5 [2] was 1e+06 ± 4000 M⁻¹ s⁻¹. In addition, in the series with corneal epithelium [3], the “promotion of epithelium wound healing / migration” value is reported as “moderately increased activity in promoting wound healing when compared to LumC13C-A”.
Take “YEALRVANEVTLN [LumC13C-A, Lumican peptide … (Lumikine)]”: in the series on corneal epithelium [1] (2 mm debridement, 10 μl eye drops 0.3 μM every 15 min for 5 h, between original wound edge and wound front), the epithelium migration distance is about 144 μm. Besides, the “promotion of corneal epithelium wound healing” value in the series with corneal epithelium [1] is listed as “increased ability to promote wound healing”. On ALK5 [4] (synthetic LumC13-terminal peptide YEALRVANEVTLN), the “binding to ALK5 to promote wound healing” value is on record as “binding ALK5 to promote wound healing”. Besides, in the series on corneal epithelium [3], the “promotion of epithelium wound healing / migration” value is listed as “promoted wound healing of corneal epithelium debridement of Lum^−/− mice to the same extent as injured wild type mice; also recorded: higher pharmaceutical activity of LumC13C-A compared to LumC13; also recorded: significantly promoted epithelium wound healing”.
For the substance LPPDMYECEVTLN [Hybrid 2/3], binding on ALK5 [6] was put at a Kd of 28.7 ± 3.9 µM.
